Assay results: patent publication US20250295729A1, “NOVEL THERAPEUTIC METHODS OF USING PEPTIDOGLYCAN MUROPEPTIDES TO PROMOTE ATP SYNTHASE ACTIVITY AND MITOCHONDRIAL HOMEOSTASIS AND DEVELOPMENT” (The Regents of the University of Colorado, a body corporate, priority 2021, published 2025)

Key:
C. elegans [1] = experiment: Developmental rate (growth delay) of worms fed PG mutant E. coli with supplementation; assay type: in vivo; conditions: supplement added
Protocol: E. coli Keio collection screen: Bacterial peptidoglycan (PG) metabolism-related genes were determined based on the published papers (Table 1) and the PG mutant sub-library was assembled from the Keio E. coli single mutant collection. Mutant bacteria strains, as well as the wild-type control strain BW25113, were cultured overnight in LB medium with 50 μg/ml kanamycin in 96-well plates at 37° C. 100 μl of the overnight E. coli cultures were spotted onto 6 cm NGM plates and dried at room temperature for 1h before use. About 200 synchronized L1 worms were then placed on the seeded NGM plates and cultured at 20° C. Animals were screened after 54-56 hours. Worm developmental rates were determined by vulval development as previously described. To quantify the developmental rate, about 50 animals were scored under Nomarski microscope. To verify the genotypes of the 4 candidate Keio mutants, PCR were performed on each mutant colony and the control BW25113 strain using specific downstream genomic primers together with kanamycin-cassette-specific primers. […]
(§1) Quantification and Statistical analysis: ImageJ software was used for quantifying fluorescence intensity of various of reporters. […]

C. elegans [2] = experiment: Food avoidance behavior assay; assay type: in vivo; conditions: worms fed PG mutant E. coli, supplement added
Protocol: Food avoidance behavior assay: Food avoidance behavior assay was determined using a method adapted from a published procedure (Kniazeva et al., 2015; Melo and Ruvkun, 2012). Briefly, overnight cultures of wild type and PG mutant E. coli were adjusted to the same OD600 and 20 μl of each culture was seeded on the center of 6 cm NGM plates. The seeded plates were dried at room temperature for 1 hour before use. About 100 synchronized L1 animals were then dropped onto the bacterial lawns and cultured for 45 hours at 20° C. The avoidance index was determined by Noff/on/Ntotal. Each assay was conducted in triplicate.
Heat-killed E. coli preparation and supplementation: We followed an established protocol to prepare heat-killed (HK) E. coli: standard overnight bacterial cultures were concentrated to 1/10 vol and were then heated in a 75° C. water bath for 90 min. For HK-E. coli supplementation, live E. coli and HK-E. coli were mixed at a 1:1 ratio then 20 μl (avoidance behavior assay) or 50 μl (other assays) mixtures were dropped on the NGM plates and dried at room temperature for 10 min before use. About 100-200 synchronized L1 animals were placed on the bacterial lawn to grow at 20° C.
PG isolation, enzyme treatment and supplementation assays: An adapted method was used to isolate peptidoglycan from bacterial cultures. […]

Phsp-6::gfp = experiment: Mt stress/UPRmt reporter (Phsp-6::gfp) in worms; assay type: in vivo, C. elegans; conditions: worms fed PG mutant E. coli, supplement added
Protocol: (§2) C. elegans strains and maintenance: C. elegans strains were grown and maintained on nematode growth media (NGM) plates seeded with the Escherichia coli strain OP50 at 20° C. The following strains were obtained from Caenorhabditis Genetics Center (CGC): N2 Bristol (wild-type control strain), SJ4100: zcIs13 [Phsp-6::gfp] V, SJ4058: zcIs9 [Phsp-60::gfp+lin-15 (+)/V, SJ4197: zcIs39 [Pdve-1::dve-1::gfp] II, SJ4005: zcIs4 [Phsp-4::gfp] V, TJ375: gpIs1 [Phsp-16.2::gfp], AY101: acIs101 [PF35E12.5::gfp+rol-6(su1006)], AU133: agIs17 [Pmyo-2::mCherry+Pirg-1::gfp] IV, CF1553: muIs84 [(pAD76) sod-3p::GFP+rol-6(su1006)]. mai-2 (xm19) was obtained from Dr. R. E. Navarro (Universidad Nacional Autonoma de Mexico).
PG isolation, enzyme treatment and supplementation assays: An adapted method was used to isolate peptidoglycan from bacterial cultures. In brief, bacterial pellets were resuspended in 1/10 vol 1M NaCl solution and boiled at 100° C. in a heating block for 1 h. […]
(§3) Microscopy: Analysis of fluorescence was performed under Nomarski optics on a Zeisis Axioplan2 microscope with a Zeiss AxioCam MRm CCD camera. […]
as §1

SOD-3::GFP = SOD-3::GFP oxidative stress reporter in worms; assay type: in vivo, C. elegans; conditions: worms fed erfK mutant E. coli
Protocol: as §2
Chemical supplementation: The NAC (Fisher Scientific, ICN10009825) stock solution (500 mM) was made in ddH2O. For NAC supplementation, NAC solution was added in NGM agar to the final concentration of 50 mM. For iron supplementation, FeCl3 (Sigma, 236489) was dissolved in ddH2O to generate solutions of desired concentration (2 mM, 8 mM and 20 mM). […]
as §3, §1

ROS = ROS staining (H2DCFDA) in C. elegans; assay type: in vivo; conditions: worms fed erfK mutant E. coli
Protocol: ROS measurements in C. elegans: The ROS staining protocol was modified from. Briefly, L4 stage animals were collected and washed three times with M9 buffer to remove the bacteria. Then the worms were transferred into the staining solution (H2DCFDA, 50 uM in M9 buffer) and incubated for 30 min at 20° C. After washing twice with M9 buffer, worms were subjected to microscopic examination.

| SMILES | growth delay (developmental delay) (C. elegans [1]) | food avoidance behavior (C. elegans [2]) | Mt stress (Phsp-6::gfp) (Phsp-6::gfp) | increase in SOD-3 level (SOD-3::GFP) (SOD-3::GFP) | ROS level (H2DCFDA staining) (ROS) |
| --- | --- | --- | --- | --- | --- |
| CC(=O)N[C@@H](CS)C(=O)O [NAC, N-acetyl-L-cysteine] | significantly suppressed | significantly suppressed | significantly suppressed | eliminated | suppressed |
| [Cl][Fe]([Cl])[Cl] [iron, FeCl3] | could not suppress |  | could not suppress |  |  |
